Key:
[1] = tested on: L1210; test: Median survival time of inhibitory activity against L1210 tumor cells in mouse at the dose of 12.5 mg/kg; format: functional
[2] = tested on: Mus musculus; test: Survivors after the treatment with 200 mg/kg dose for 5 days in 6 mice; format: functional
[3] = tested on: Mus musculus; test: Survivors after the treatment with 25 mg/kg dose for 5 days in 6 mice; format: functional
[4] = tested on: Mus musculus; test: Average weight change in mouse after the treatment with 12.5 mg/kg dose of the compound; format: functional
[5] = tested on: Mus musculus; test: Survivors after the treatment with 12.5 mg/kg dose for 5 days in 6 mice; format: functional
[6] = tested on: L1210; test: Median survival time of inhibitory activity against L1210 tumor cells in mouse at the dose of 25 mg/kg; format: functional
[7] = tested on: Mus musculus; test: Average weight change in mouse after the treatment with 25 mg/kg dose of the compound; format: functional
[8] = tested on: L1210; test: Median survival time of inhibitory activity against L1210 tumor cells in mice at the dose of 200 mg/kg; format: functional, Mus musculus
[9] = tested on: L1210; test: Median survival time of inhibitory activity against L1210 tumor cells in mouse at the dose of 50 mg/kg; format: functional
[10] = tested on: Mus musculus; test: Average weight change in mouse after the treatment with 100 mg/kg dose of the compound; format: functional
[11] = tested on: Mus musculus; test: Average weight change in mouse after the treatment with 200 mg/kg dose of the compound; format: functional
[12] = tested on: Mus musculus; test: Survivors after the treatment with 50 mg/kg dose for 5 days in 6 mice; format: functional
[13] = tested on: L1210; test: Median survival time of inhibitory activity against L1210 tumor cells in mouse at the dose of 100 mg/kg; format: functional
[14] = tested on: Mus musculus; test: Survivors after the treatment with 100 mg/kg dose for 5 days in 6 mice; format: functional
[15] = tested on: Mus musculus; test: Average weight change in mouse after the treatment with 50 mg/kg dose of the compound; format: functional

## CC(O)[C@H]1O[C@@H](n2cnc3c(S)ncnc32)[C@H](O)[C@@H]1O (stereo not given in full)
[1]
  T/C: 107%
[2]
  Survivors: 6
[3]
  Survivors: 6
[4]
  Average weight change: -1
[5]
  Survivors: 6
[6]
  T/C: 116%
[7]
  Average weight change: -1.4
[8]
  T/C: 148%
[9]
  T/C: 142%
[10]
  Average weight change: -3.6
[11]
  Average weight change: -4.4
[12]
  Survivors: 6
[13]
  T/C: 146%
[14]
  Survivors: 6
[15]
  Average weight change: -1.7
